The values that follow come from ChEMBL document CHEMBL4020786, “Discovery of pyrazolo[1,5-a]pyrimidine-3-carbonitrile derivatives as a new class of histone lysine demethylase 4D (KDM4D) inhibitors” (Bioorg Med Chem Lett, 2017).

pIC50: −log10 of the molar value.

The target in assay [1] is T1, Lysine-specific demethylase 4D (Homo sapiens) (UniProt Q6B0I6).
T1 sequence (whole entry): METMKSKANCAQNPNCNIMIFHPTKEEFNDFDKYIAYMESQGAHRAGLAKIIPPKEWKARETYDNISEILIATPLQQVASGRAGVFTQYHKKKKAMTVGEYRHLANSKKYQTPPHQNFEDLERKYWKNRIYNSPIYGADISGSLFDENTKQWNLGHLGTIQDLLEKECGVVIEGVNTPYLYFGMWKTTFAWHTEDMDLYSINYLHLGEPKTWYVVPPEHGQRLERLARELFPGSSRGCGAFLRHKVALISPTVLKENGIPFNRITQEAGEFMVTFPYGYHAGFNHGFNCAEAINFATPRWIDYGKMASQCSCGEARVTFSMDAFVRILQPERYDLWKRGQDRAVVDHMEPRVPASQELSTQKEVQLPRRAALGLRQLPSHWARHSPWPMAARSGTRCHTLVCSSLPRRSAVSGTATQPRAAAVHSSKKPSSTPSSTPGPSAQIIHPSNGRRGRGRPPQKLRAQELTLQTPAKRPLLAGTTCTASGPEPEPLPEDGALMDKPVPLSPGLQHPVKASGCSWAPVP
In words: Inhibition of KDM4D (unknown origin) at 10 uM using biotinylated H3 derived peptide as substrate preincubated for 15 mins followed by substrate addition measured after 1 hr by AlphaLISA method.

The target of assay [2] is T2, Lysine-specific demethylase 4D (Homo sapiens, UniProt Q6B0I6).
T2 sequence (Q6B0I6 whole entry): T1 sequence (whole entry)
The experiment in a line: Inhibition of KDM4D (unknown origin) using biotinylated H3 derived peptide as substrate preincubated for 15 mins followed by substrate addition measured after 1 hr by AlphaLISA method.

In assay [3] the target is Lysine-specific demethylase 5A (Homo sapiens) (UniProt P29375). The experiment in a line: Inhibition of KDM5A (unknown origin) at 10 uM.
Lysine-specific demethylase 5A (Homo sapiens), sequence (P29375 whole entry): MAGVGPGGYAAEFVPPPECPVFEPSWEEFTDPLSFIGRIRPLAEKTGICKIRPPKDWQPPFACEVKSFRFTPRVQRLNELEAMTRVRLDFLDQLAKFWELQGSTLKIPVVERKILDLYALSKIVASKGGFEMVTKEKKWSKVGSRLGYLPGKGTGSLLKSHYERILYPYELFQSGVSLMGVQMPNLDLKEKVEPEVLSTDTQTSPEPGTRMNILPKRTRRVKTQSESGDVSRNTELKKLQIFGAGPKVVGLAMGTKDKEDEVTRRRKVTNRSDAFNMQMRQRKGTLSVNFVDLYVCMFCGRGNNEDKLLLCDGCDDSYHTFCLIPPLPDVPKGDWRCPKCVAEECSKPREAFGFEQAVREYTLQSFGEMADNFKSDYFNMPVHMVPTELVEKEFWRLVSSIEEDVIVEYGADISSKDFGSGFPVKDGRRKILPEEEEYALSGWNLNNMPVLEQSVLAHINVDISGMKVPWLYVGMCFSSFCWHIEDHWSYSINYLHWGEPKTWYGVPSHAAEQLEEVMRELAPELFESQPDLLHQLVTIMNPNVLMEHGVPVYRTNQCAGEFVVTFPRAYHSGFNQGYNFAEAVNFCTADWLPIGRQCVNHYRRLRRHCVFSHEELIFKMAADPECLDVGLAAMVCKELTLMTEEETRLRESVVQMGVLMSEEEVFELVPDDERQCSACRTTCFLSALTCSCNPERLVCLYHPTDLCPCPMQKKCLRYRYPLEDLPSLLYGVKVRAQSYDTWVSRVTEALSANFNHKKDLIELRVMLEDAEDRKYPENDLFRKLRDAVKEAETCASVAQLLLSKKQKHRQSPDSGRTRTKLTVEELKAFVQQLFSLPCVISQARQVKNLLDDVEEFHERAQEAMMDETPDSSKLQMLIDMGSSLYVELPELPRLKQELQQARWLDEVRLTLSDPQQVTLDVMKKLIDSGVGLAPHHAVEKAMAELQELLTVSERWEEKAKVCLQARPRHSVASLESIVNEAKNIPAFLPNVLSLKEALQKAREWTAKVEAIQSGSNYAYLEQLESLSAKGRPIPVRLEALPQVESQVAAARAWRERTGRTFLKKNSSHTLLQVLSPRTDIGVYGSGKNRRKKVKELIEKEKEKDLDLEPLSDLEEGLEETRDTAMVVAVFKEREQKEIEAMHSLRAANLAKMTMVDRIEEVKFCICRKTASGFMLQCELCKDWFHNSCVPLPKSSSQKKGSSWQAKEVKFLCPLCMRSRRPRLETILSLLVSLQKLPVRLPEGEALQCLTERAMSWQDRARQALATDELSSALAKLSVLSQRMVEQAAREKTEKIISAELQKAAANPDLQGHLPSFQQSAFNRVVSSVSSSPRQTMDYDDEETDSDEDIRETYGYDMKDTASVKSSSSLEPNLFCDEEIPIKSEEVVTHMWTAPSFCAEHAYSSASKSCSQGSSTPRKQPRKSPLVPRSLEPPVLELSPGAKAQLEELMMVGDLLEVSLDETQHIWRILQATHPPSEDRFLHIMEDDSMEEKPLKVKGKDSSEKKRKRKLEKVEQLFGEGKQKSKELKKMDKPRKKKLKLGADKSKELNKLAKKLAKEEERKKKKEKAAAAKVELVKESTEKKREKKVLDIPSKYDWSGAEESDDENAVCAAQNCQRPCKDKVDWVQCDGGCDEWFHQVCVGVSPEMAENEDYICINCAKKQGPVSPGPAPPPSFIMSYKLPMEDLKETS
The target in assay [4] is T3, Lysine-specific demethylase 2B (Homo sapiens) (UniProt Q8NHM5).
T3 sequence (whole entry): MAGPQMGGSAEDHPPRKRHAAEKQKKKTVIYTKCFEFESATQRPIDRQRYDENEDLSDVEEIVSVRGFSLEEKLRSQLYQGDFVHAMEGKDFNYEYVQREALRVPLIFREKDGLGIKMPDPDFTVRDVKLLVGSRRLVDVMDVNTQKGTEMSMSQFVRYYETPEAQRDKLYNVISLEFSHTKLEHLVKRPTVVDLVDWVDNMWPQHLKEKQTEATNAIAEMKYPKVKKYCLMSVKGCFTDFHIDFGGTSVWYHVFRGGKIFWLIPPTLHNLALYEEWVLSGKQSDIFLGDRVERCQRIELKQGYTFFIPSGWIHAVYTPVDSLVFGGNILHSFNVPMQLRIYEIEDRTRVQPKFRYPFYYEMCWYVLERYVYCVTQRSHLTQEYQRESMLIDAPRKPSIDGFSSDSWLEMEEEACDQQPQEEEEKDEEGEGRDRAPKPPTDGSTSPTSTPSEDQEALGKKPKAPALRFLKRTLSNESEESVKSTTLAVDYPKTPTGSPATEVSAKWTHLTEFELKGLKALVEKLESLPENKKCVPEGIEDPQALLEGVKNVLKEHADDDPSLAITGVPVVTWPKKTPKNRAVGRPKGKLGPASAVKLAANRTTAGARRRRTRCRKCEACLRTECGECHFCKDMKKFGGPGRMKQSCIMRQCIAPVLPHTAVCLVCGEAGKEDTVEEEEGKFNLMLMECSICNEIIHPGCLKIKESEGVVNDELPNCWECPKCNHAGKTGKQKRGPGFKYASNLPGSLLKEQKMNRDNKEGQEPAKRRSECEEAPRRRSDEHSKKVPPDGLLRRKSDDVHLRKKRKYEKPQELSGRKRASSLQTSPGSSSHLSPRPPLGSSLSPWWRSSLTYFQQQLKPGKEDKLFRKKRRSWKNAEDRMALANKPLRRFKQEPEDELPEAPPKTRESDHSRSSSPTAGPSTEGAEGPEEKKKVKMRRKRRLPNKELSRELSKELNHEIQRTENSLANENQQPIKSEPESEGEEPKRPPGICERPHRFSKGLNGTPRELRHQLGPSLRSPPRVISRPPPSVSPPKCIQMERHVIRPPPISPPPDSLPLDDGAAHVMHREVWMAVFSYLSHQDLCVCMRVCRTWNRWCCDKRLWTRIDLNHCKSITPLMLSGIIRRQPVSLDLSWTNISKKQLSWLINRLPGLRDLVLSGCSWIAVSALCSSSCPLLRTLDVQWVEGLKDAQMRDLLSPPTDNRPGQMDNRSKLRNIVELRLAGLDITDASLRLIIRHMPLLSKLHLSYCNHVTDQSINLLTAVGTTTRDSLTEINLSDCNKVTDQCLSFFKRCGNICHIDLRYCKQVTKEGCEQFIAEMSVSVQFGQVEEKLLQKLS
The experiment in a line: Inhibition of KDM2B (unknown origin) at 10 uM.

Assay [5] concerns the target Lysine-specific demethylase 3B (Homo sapiens) (UniProt Q7LBC6). In words: Inhibition of KDM3B (unknown origin) at 10 uM.

Lysine-specific demethylase 3B (Homo sapiens), sequence (Q7LBC6 whole entry): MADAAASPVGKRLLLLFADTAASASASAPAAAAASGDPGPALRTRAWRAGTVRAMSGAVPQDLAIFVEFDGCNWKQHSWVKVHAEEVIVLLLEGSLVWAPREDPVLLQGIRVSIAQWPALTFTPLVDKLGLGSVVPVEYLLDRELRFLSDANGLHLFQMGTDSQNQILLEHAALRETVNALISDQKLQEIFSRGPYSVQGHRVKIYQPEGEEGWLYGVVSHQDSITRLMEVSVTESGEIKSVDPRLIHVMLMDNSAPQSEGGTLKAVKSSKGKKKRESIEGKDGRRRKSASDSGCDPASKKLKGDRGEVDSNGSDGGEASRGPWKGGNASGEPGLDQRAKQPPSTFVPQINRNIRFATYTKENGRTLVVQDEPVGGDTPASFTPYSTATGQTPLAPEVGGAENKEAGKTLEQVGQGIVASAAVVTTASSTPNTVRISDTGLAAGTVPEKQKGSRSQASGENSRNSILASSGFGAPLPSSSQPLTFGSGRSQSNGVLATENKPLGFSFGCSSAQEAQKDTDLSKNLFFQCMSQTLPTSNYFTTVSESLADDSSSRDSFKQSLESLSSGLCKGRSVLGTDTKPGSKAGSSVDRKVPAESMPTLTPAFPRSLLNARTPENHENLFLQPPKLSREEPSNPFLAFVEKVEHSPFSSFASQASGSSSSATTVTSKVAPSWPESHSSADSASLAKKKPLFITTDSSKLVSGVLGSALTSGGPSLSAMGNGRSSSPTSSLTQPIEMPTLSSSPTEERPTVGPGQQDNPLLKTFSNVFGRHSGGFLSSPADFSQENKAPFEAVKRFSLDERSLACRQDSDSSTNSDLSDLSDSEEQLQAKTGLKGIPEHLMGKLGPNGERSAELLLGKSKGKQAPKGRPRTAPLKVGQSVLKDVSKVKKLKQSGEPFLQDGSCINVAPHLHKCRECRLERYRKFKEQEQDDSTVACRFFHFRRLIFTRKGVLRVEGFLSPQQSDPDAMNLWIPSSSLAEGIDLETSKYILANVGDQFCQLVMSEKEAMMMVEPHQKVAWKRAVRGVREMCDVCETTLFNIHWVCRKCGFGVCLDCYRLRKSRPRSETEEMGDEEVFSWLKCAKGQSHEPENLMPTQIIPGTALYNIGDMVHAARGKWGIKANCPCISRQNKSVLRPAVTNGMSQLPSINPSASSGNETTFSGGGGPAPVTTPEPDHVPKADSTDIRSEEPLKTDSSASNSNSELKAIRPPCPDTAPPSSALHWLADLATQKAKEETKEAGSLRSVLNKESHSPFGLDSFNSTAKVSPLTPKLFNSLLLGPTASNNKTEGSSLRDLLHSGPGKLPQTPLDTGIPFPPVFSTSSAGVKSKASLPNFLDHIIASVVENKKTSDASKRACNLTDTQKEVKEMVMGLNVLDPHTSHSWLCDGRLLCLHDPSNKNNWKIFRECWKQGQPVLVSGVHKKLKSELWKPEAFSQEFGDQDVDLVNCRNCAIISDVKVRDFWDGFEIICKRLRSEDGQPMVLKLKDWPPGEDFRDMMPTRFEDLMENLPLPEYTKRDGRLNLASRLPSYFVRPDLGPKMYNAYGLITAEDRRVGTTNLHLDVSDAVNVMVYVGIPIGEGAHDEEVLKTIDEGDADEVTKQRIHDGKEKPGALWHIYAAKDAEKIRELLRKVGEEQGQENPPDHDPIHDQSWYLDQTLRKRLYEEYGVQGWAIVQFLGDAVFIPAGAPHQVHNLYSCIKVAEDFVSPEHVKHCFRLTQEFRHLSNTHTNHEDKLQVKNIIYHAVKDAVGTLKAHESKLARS

As for `N#Cc1cnn2c1nc(O)c1ccncc12`, the inhibition in assay [1] was found to be 68.1%.

`CCc1nn2c(nc(O)c3cccnc32)c1C#N` showed a pIC50 in assay [2] of 5.73. The inhibition in assay [1] was determined as 78.1%. As for `N#Cc1cnn2c1nc(O)c1ncccc12`, the inhibition in assay [1] came out at 5.26%. As for `Oc1ccccc1-c1ccn(-c2nccc(N3CCOCC3)n2)n1`, the inhibition in assay [1] was 99.7%; in assay [3], 73.6%; in assay [4] it was 84.1%; in assay [5] it was 90.7%. For `N#Cc1cnn2c1nc(O)c1ccc(C(F)(F)F)cc12`, the inhibition in assay [1] is -0.35%. Still for that read-out and setting: the value for `N#Cc1cnn2c1nc(O)c1cnccc12` was 16.4%; that for `N#Cc1cnn2c1nc(O)c1ccc(Cl)nc12` was 58.7%; that for `N#Cc1cnn2c1nc(O)c1ccc(N)cc12` was -2.25%. The same measure, in the same setting: the value for `N#Cc1cnn2c1nc(O)c1cccc(C(F)(F)F)c12` was 8.63%; that for `N#Cc1cnn2c1nc(O)c1cc([N+](=O)[O-])cnc12` was 1.91%; that for `N#Cc1cnn2c1nc(O)c1ccc(C(F)(F)F)nc12` was 10.4%.

Consider `CS(=O)(=O)c1ccc2c(O)nc3c(C#N)cnn3c2c1`, for which the inhibition in assay [1] is 9.63%. On to `N#Cc1c(-c2ccccc2)nn2c1nc(O)c1cccnc12`, for which the inhibition in assay [1] is 23.6%.

Compound `N#Cc1cnn2c1nc(O)c1cccc([N+](=O)[O-])c12` showed a pIC50 in assay [2] of 5.50. Also, the inhibition in assay [1] is 73.3%; in assay [3], 23.1%; in assay [4], -4.85%; in assay [5], -2.18%.

Turning to `N#Cc1cnn2c1nc(O)c1cccc(N)c12`, the inhibition in assay [1] stood at 62.3%. Same read-out and setting: for `N#Cc1cnn2c1nc(O)c1ccc([N+](=O)[O-])cc12` the value was 4.75%. In assay [2], `N#Cc1cnn2c1ncc1cccnc12` gave a pIC50 of 5.39. Moreover, the inhibition in assay [1] worked out at 85.1%.

Consider `Cc1nc2c(C#N)cnn2c2ncccc12`, for which the inhibition in assay [1] turned out to be 22.9%. Still for that read-out and setting: the value for `N#Cc1cnn2c1nc(O)c1ccccc12` was 9.03%; that for `N#Cc1cnn2c1nc(O)c1cccnc12` was 20.1%. On the same count and under the same terms, for `Cc1ccc2c(O)nc3c(C#N)cnn3c2n1` the value was 21.9%. Compound `Cc1nn2c(nc(O)c3cccnc32)c1C#N` had a pIC50 in assay [2] of 6.39. In addition, the inhibition in assay [1] came to 88.8%.
